These results are taken from ChEMBL document CHEMBL1156232, “Non-classical antifolates. Part 2: synthesis, biological evaluation, and molecular modeling study of some new 2,6-substituted-quinazolin-4-ones” (Bioorg Med Chem, 2010).

≈ marks a conversion by molar mass, not a printed value. Calls of active or inactive are those of the source. The calls are words filed in the database; no cut-off is given here.

The nature of assay [1]: Antitumor activity against human ovarian cancer cells after 48 hrs by SRB assay. As to conditions: Cancer cell lines. Type of assay: functional. Background: The SRB assay estimates cell density from bound dye.
The nature of assay [2]: Antitumor activity against human prostate cancer cells after 48 hrs by SRB assay. Type of assay: functional. The settings on record: Cancer cell lines.
Assay [3] deals with T1, Dihydrofolate reductase (Bos taurus, UniProt P00376).
T1 sequence (P00376 whole entry): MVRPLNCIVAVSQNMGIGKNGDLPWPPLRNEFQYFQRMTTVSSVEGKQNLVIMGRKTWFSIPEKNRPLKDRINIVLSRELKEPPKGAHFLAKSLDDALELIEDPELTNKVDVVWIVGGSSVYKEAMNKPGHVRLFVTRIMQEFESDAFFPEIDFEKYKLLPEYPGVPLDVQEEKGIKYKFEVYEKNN
Description: Inhibition of bovine DHFR after 2 mins

For assay [4], the system named is MDA-MB-468. In words: Antitumor activity against human MDA-MB-468 cells after 48 hrs by SRB assay. It is filed as functional. The settings on record: MDA-MB-468, 48 h.
Assay [5] addresses T2, Dihydrofolate reductase (Homo sapiens, UniProt P00374).
T2 sequence (P00374 whole entry): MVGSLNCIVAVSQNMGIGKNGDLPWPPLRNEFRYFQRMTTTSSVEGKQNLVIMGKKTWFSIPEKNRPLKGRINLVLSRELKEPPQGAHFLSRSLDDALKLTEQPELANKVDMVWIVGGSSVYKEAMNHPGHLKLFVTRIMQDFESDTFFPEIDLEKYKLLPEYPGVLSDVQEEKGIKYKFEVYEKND
Description: Inhibition of human DHFR after 2 mins

The nature of assay [6]: Antitumor activity against human CNS cancer cells after 48 hrs by SRB assay. The settings on record: Cancer cell lines. Type of assay: functional.
Assay [7] in a line: Antitumor activity against human non small cell lung cancer cells after 48 hrs by SRB assay. It is filed as functional. As to conditions: Cancer cell lines.
Assay [8] has as its system Candida albicans. In words: Antifungal activity against Candida albicans after 48 hrs by microdilution susceptibility method. It is filed as functional, organism-based. A general note: In broth dilution the organism is exposed to a series of concentrations in liquid medium.
Assay [9] relates to Micrococcus luteus. The experiment in a line: Antibacterial activity against Micrococcus luteus at 200 ug/disk after 24 hrs by disk diffusion method. Type of assay: functional.
Assay [10] can be described thus: Antitumor activity against human leukemia cells after 48 hrs by SRB assay. It is filed as functional. The settings on record: Leukemia cell.
In assay [11] the test system is Staphylococcus aureus. In words: Antibacterial activity against Staphylococcus aureus at 200 ug/disk after 24 hrs by disk diffusion method. Type of assay: functional. On the technique in general: A growth-free zone around the sample is the usual read-out of agar diffusion tests.
Assay [12] concerns Candida albicans. The experiment in a line: Antifungal activity against Candida albicans at 200 ug/disk after 48 hrs by disk diffusion method. Type of assay: functional, organism-based.
Assay [13] can be described thus: Antitumor activity against human colon cancer cells after 48 hrs by SRB assay. As to conditions: Cancer cell lines. Type of assay: functional.
Assay [14] can be described thus: Antitumor activity against human breast cancer cells after 48 hrs by SRB assay. It is filed as functional. The settings on record: Cancer cell lines.
Assay [15] in a line: Antitumor activity against human melanoma cells after 48 hrs by SRB assay. It is filed as functional. The settings on record: Melanoma cell.
The subject of assay [16] is Bacillus subtilis. In words: Antibacterial activity against Bacillus subtilis at 200 ug/disk after 24 hrs by disk diffusion method. Type of assay: functional.
The test system of assay [17] is Escherichia coli. The experiment in a line: Antibacterial activity against Escherichia coli at 200 ug/disk after 24 hrs by disk diffusion method. Type of assay: functional.
Assay [18] in a line: Antitumor activity against human renal cancer cells after 48 hrs by SRB assay. As to conditions: Cancer cell lines. Type of assay: functional.
The subject of assay [19] is Pseudomonas aeruginosa. The experiment in a line: Antibacterial activity against Pseudomonas aeruginosa at 200 ug/disk after 24 hrs by disk diffusion method. It is filed as functional.
In assay [20] the test system is HT-29. The experiment in a line: Antitumor activity against human HT-29 cells after 48 hrs by SRB assay. The settings on record: HT-29, 48 h. It is filed as functional.
For assay [21], the system named is OVCAR-4. The experiment in a line: Antitumor activity against human OVCAR4 cells after 48 hrs by SRB assay. Type of assay: functional. The settings on record: OVCAR-4, 48 h.
For assay [22], the system named is Pseudomonas aeruginosa. In words: Antibacterial activity against Pseudomonas aeruginosa after 24 hrs by microdilution susceptibility method. It is filed as functional.

As usually defined, the GI50 is the concentration giving 50% growth inhibition. For orientation: TGI means the concentration giving total growth inhibition. A low value points to more potent growth arrest. In general, IC50 refers to the concentration that inhibits the measured activity by half. Take `CSc1nc2ccc(NC(=O)/C=C/c3ccccc3)cc2c(=O)n1Cc1ccccc1`: the 50% growth inhibitory concentration (GI50) amounted to 1100 nM in assay [1]; 1600 nM in assay [2]; 2200 nM in [4]; 1900 nM in assay [6]; 1700 nM in [7]; 51600 nM in [10]. For the same molecule, the concentration for 50% growth inhibition (GI50) in assay [13] was 34500 nM; in assay [14] it was 3000 nM; in [15], 2400 nM; in [18], 2900 nM. Besides, the concentration for total growth inhibition (TGI) in assay [1] is more than 100000 nM; in [2], more than 100000 nM; in [6], 68400 nM; in assay [7], 80900 nM; in [10], more than 100000 nM; in assay [13] it was more than 100000 nM. Also, the TGI is more than 100000 nM in assay [14], 26900 nM in assay [15] and more than 100000 nM in assay [18]. For the same molecule, the figures for the IC50 in assay [3] and in assay [5] were 600 nM and 1000 nM, respectively. Further, the result in assay [8] and in assay [12] was inactive. Also, the “diameter of the inhibition zone (DIZ)” value in assay [9], in [11], in assay [16], in [17] and in assay [19] was “inactive” in each case.

In the case of `O=C(/C=C/c1ccccc1)Nc1ccc2nc(SC/C=C/c3ccccc3)n(Cc3ccccc3)c(=O)c2c1`, the GI50 in [1] was 3300 nM; in [2] it was more than 100000 nM; in assay [6], 3000 nM; in assay [7], 2200 nM; in [10] it was more than 100000 nM; in assay [13] it was 1900 nM. The 50% growth inhibitory concentration (GI50) in assay [14] stood at 2500 nM; in [15], 2200 nM; in [20], 600 nM; in assay [18], 2600 nM; in assay [21], 400 nM. Also, the TGI in assay [1] is more than 100000 nM; in assay [2] it was more than 100000 nM; in [6], 37000 nM; in assay [7] it was 76400 nM; in assay [10], more than 100000 nM; in [13], more than 100000 nM. Besides, the TGI in [14] is 68600 nM; in assay [15] it was 86900 nM; in [18], 68000 nM. Further, the figures for the IC50 in assay [3] and in [5] were 900 nM and 500 nM, respectively. In addition, the result in assay [8] and in assay [12] was inactive.

Usually MIC stands for the lowest concentration that inhibits growth of the organism. Lower therefore signals greater potency. In the case of `O=c1c2cc([N+](=O)[O-])ccc2nc(SC/C=C/c2ccccc2)n1Cc1ccccc1`, the IC50 turned out to be 5000 nM in assay [3] and 3000 nM in assay [5]. Besides, the result in assay [8] and in assay [12] was inactive. Besides, the “diameter of the inhibition zone (DIZ)” value in assay [9], in [11] and in [16] was “inactive” each time. Moreover, the MIC in [22] was found to be 16 µg/mL (≈ 37.3 µM). The zone of inhibition at 200 µg/disc was found to be 21 mm in [17] (read-out: DIZ) and 17 mm in assay [19] (read-out: DIZ).
